What all share (assay): relative viability (nuclei count vs DMSO), 5 days (fraction); higher = more cells survive
Compound in the test “R406 + Navitoclax”: COc1cc(Nc2ncc(F)c(Nc3ccc4c(n3)NC(=O)C(C)(C)O4)n2)cc(OC)c1OC [R406] + CC1(C)CCC(c2ccc(Cl)cc2)=C(CN2CCN(c3ccc(C(=O)NS(=O)(=O)c4ccc(N[C@H](CCN5CCOCC5)CSc5ccccc5)c(S(=O)(=O)C(F)(F)F)c4)cc3)CC2)C1 [Navitoclax] (partner 0.5 µM)
In short, it runs like this:
(§1)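 For relative viability, nuclei counts in treated wells were divided by those in vehicle wells. Lung cancer cell lines had been pin-tool dosed in 1536-well plates the day after seeding and cultured for 5 days, then fixed and stained in one step (final 0.05% Triton X-100, 1% formaldehyde, 1 ug/ml Hoechst) and imaged at 4×. Doses were one drug alone or a fixed anchor-drug dose plus five library-drug doses (not always all listed) in √10 steps, and values are duplicate-plate medians.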

Compound in the test “R406 + Olaparib”: COc1cc(Nc2ncc(F)c(Nc3ccc4c(n3)NC(=O)C(C)(C)O4)n2)cc(OC)c1OC [R406] + O=C(c1cc(Cc2n[nH]c(=O)c3ccccc23)ccc1F)N1CCN(C(=O)C2CC2)CC1 [Olaparib] (partner 8 µM)
In short, it runs like this:
as §1

Compound in the test “Daporinad + Crizotinib”: O=C(/C=C/c1cccnc1)NCCCCC1CCN(C(=O)c2ccccc2)CC1 [Daporinad] + C[C@@H](Oc1cc(-c2cnn(C3CCNCC3)c2)cnc1N)c1c(Cl)ccc(F)c1Cl [Crizotinib] (partner 1 µM)
In short, it runs like this: as §1

Compound in the test “Daporinad + Olaparib”: O=C(/C=C/c1cccnc1)NCCCCC1CCN(C(=O)c2ccccc2)CC1 [Daporinad] + O=C(c1cc(Cc2n[nH]c(=O)c3ccccc23)ccc1F)N1CCN(C(=O)C2CC2)CC1 [Olaparib] (partner 8 µM)
The essentials:
as §1

On to UMC-11, for which the relative viability with R406 + Navitoclax (first compound 0.08 µM) stood at 0.357; in the test with R406 + Navitoclax (first compound 0.253 µM) it was 0.321; with R406 + Navitoclax (first compound 0.8 µM) it was 0.295; with R406 + Navitoclax (first compound 2.53 µM) it was 0.288; with R406 + Navitoclax (first compound 8 µM) it was 0.191; with R406 + Olaparib (first compound 0.08 µM), 0.392. Besides, the relative viability in the test with R406 + Olaparib (first compound 0.253 µM) is 0.348; in the test with R406 + Olaparib (first compound 0.8 µM) it was 0.342; with R406 + Olaparib (first compound 2.53 µM), 0.363; with R406 + Olaparib (first compound 8 µM), 0.199; in the test with Daporinad + Crizotinib (first compound 0.0005 µM) it was 0.672; in the test with Daporinad + Crizotinib (first compound 0.001581 µM) it was 0.641. Further, the relative viability in the test with Daporinad + Crizotinib (first compound 0.005 µM) turned out to be 0.852; in the test with Daporinad + Crizotinib (first compound 0.01581 µM) it was 0.656; with Daporinad + Olaparib (first compound 0.0005 µM), 0.294; with Daporinad + Olaparib (first compound 0.001581 µM), 0.339; in the test with Daporinad + Olaparib (first compound 0.005 µM), 0.343; with Daporinad + Olaparib (first compound 0.01581 µM), 0.309.

For the origin of these results see the supplement of paper PMC10307832.
